Patent US4537894A, “Methods of using compositions having antithrombotic and anti-blood-platelet-aggregating activity” (priority 1978, dated 1985)
Entries after “also recorded” stand apart in the source; their conditions may differ. Counter-ions that a name gives are not always drawn.

Experiments:
[1] = test system: platelet aggregation (collagen); conditions: Packham et al 1967; cited from earlier work
[2] = test system: platelet aggregation (antigen-antibody complexes); conditions: Packham et al 1967; cited from earlier work
[3] = acute toxicity, LD50, rats; conditions: rat, in vivo
Mongrel dogs = assay: survival on the 7th day after adrenalin infusion; type: in vivo; conditions: for number of animals that survived on the 7th day after adrenalin infusion: oral, twice a day, 4 days, control 2/5; for survival time, in words: adrenalin infusion, dogs
Experimental: (§1) This investigation concerned myocardial necrosis induced in animals under severe stress conditions which may be reproduced by infusion of adrenalin.
(§2) Mongrel dogs of either sex, weighing about 10 kg, were distributed into groups of 5 animals each: except for one group of untreated dogs (controls, Group 1), the other groups were orally administered the test material, twice a day, for 4 days, repsectively:
(§3) Eighteen hours after the last treatment the dogs were anesthetized with phenobarbital (25 mg/kg, i.v.); a catheter was placed in the femoral artery, the blood pressure was recorded via a STAHAM P 23 GD sensor and the ECG was recorded (D1 and D2) with a RACIA polygraph. The adrenalin was infused by the cephalic route at a dosage of 4 μg/kg/mn at a rate of 2 ml/mn for 4 hours.
(§4) The animals were freed from the catheters and were allowed to wake up. The animals which survived 7 days later were sacrificed and autopsied; the hearts were cut out and examined macroscopically prior to taking samples for histological examination. Any macroscopic anomalies are rated according to the following code (Table II) which was established arbitrarily and which takes into account the extent of the damages (p.9).
The number of animals that survived on the 7th day after adrenalin infusion is reported below: […]

[4] = test system: blood platelets (A.D.P. induced aggregation); assay: A.D.P. induced blood-platelet aggregation after oral treatment; type: in vivo, Wistar rats; conditions: Rattus norvegicus, read-out: Percent Inhibition, A.D.P.
Experimental: Blood was taken from the jugular vein of Wistar rats. […] (a) Determination of A.D.P. induced blood-platelet aggregation 0.4 ml plasma is placed in a siliconized tube provided with a magnet bar which is also siliconized. The tube is introduced into an aggregometer coupled with an apparatus which records the optical density variations. When light transmission has reached a stable value, 0.5 ml of a solution containing 10μ M A.D.P. (adenosine-di-phosphate) is added to the tube. Blood-platelet-aggregation produces then an increase of light transmission followed by a decrease subsequent to the deaggregation phase. The maximum optical density variation thus determined characterizes the intensity of the aggregation.

[5] = acute toxicity, LD50, mice; conditions: mouse, in vivo
[6] = test system: blood platelets (collagen-induced aggregation); assay: collagen-induced blood-platelet aggregation after oral treatment; type: in vivo, Wistar rats; conditions: Rattus norvegicus, read-out: Percent Inhibition, Collagen
Experimental: Blood was taken from the jugular vein of Wistar rats. […] 0.4 ml plasma is placed in a siliconized tube provided with a magnet bar which is also siliconized. The tube is introduced into an aggregometer coupled with an apparatus which records the optical density variations. […] Blood-platelet-aggregation produces then an increase of light transmission followed by a decrease subsequent to the deaggregation phase. The maximum optical density variation thus determined characterizes the intensity of the aggregation. (b) Determination of collagen-induced blood-platelet-aggregation The A.D.P. solution is substituted with a collagen solution (bovine tendon extract).

blood platelets = assay: blood-platelet count before and after adrenalin infusion; type: in vivo, Mongrel dogs; conditions: for Blood-platelet count, change prior to and after adrenalin infusion: oral, twice a day, 4 days, controls 32.4% decrease; for number of blood-platelets, in words: adrenalin infusion, dogs
Experimental: as §1, §2, §3
Arterial blood samples were taken before and after the end of the infusion, to effect the blood-platelet counts.

[7] = acute toxicity, LD50, rabbits; conditions: rabbit, in vivo, iv, Miller & Tainter method, read-out: LD50 /24 hrs/kg body weight
Description: The tests carried out concerned:

platelet = conditions: in man; Goodman and Gilman 1975; cited from earlier work
myocardial necrosis = assay: adrenalin-induced myocardial necrosis, macroscopic lesions; type: in vivo, Mongrel dogs; conditions: for Macroscopic Lesions, necrosis score: oral, twice a day, 4 days, control 18.0; for necrosis / macroscopic lesions, in words: adrenalin infusion, dogs, vs controls
Experimental: as §1, §3, §4

[8] = Group 4: 20 mg/kg sulfinpyrazone
[9] = Group 5: 40 mg/kg sulfinpyrazone
[10] = Group 4: 10 mg/kg sulfinpyrazone, oral, 3 hours after treatment, vs control
[11] = Group 5: 20 mg/kg sulfinpyrazone, oral, 3 hours after treatment, vs control
[12] = Group 2: 50 mg/kg ticlopidine hydrochloride
[13] = Group 3: 100 mg/kg ticlopidine hydrochloride

## O=C1C(CC[S+]([O-])c2ccccc2)C(=O)N(c2ccccc2)N1c1ccccc1 (stereo not shown) [sulfinpyrazone, 1,2-diphenyl-(2'-phenylsulfinyl-ethyl)pyrazolidine-3,5-dione]
[1]
  platelet aggregation in response to collagen: blocks platelet aggregation
[2]
  platelet aggregation in response to antigen-antibody complexes: blocks platelet aggregation
[3]; iv
  LD50 at 24 h: 154 mg/kg
[3]; po
  LD50 at 24 h: 375 mg/kg
Mongrel dogs; [8]
  number of animals that survived on the 7th day after adrenalin infusion: 2/5
Mongrel dogs; [9]
  number of animals that survived on the 7th day after adrenalin infusion: 2/5
Mongrel dogs
  survival time, in words: no effect
[4]; [10]
  inhibition at 10 mg/kg: 8.7%
[4]; [11]
  inhibition at 20 mg/kg: 14.1%
[5]; iv
  LD50 at 24 h: 240 mg/kg
[5]; po
  LD50 at 24 h: 298 mg/kg
[6]; [10]
  inhibition at 10 mg/kg: 12.7%
[6]; [11]
  inhibition at 20 mg/kg: 20.5%
Blood platelets; [8]
  Blood-platelet count, change prior to and after adrenalin infusion: -12%
Blood platelets; [9]
  Blood-platelet count, change prior to and after adrenalin infusion: -7%
Blood platelets
  number of blood-platelets, in words: no effect
[7]
  LD50 at 24 h: 195 mg/kg
platelet
  platelet survival: prolongs platelet survival
Myocardial necrosis; [8]
  Macroscopic Lesions, necrosis score: 18.2
Myocardial necrosis; [9]
  Macroscopic Lesions, necrosis score: 17.4
Myocardial necrosis
  necrosis / macroscopic lesions, in words: substantially identical with those of the controls; also recorded: no effect

## Clc1ccccc1CN1CCc2sccc2C1 [ticlopidine hydrochloride, 5-(2-chloro-benzyl)-4,5,6,7-tetrahydro-thieno[3,2-c]pyridine]
Mongrel dogs; [12]
  number of animals that survived on the 7th day after adrenalin infusion: 3/5
Mongrel dogs; [13]
  number of animals that survived on the 7th day after adrenalin infusion: 4/5
Mongrel dogs
  survival time, in words: improves the survival time
[4]; po, 3 h
  inhibition at 25 mg/kg: 28.5%
  inhibition at 50 mg/kg: 40.6%
[6]; po, 3 h
  inhibition at 25 mg/kg: 48.6%
  inhibition at 50 mg/kg: 58.3%
Blood platelets; [12]
  Blood-platelet count, change prior to and after adrenalin infusion: +14%
Blood platelets; [13]
  Blood-platelet count, change prior to and after adrenalin infusion: +13.2%
Blood platelets
  number of blood-platelets, in words: increases the number of blood-platelets
Myocardial necrosis; [12]
  Macroscopic Lesions, necrosis score: 6.8
Myocardial necrosis; [13]
  Macroscopic Lesions, necrosis score: 4.8
Myocardial necrosis
  necrosis / macroscopic lesions, in words: significant protection against myocardia necrosis
